Measurements reported in US20250257332A1, “TRUNCATED AND FUSION PROTEINS” (Monash University, priority 2021, published 2025).
“Also recorded” adds a separate entry of the source.

Columns and labels:
[1] = test system: C2C12 myoblasts; test: C2C12 myoblast proliferation by EdU incorporation; type: cell-based, mouse; conditions: for effect on NAMPT-induced increase in myoblast proliferation: co-administration with NAMPT
Method: FIG. 2. […] In vitro assay assessing the effects of exogenously introduced factors on C2C12 myoblast proliferation. Proliferation is identified by EdU incorporation. […] Mean+S.D. Two-way ANOVA with Tukey's multiple comparison test. […] Mean±SEM
The mouse muscle cell line C2C12 (Yaffe, D. & Saxel, O. Serial passaging and differentiation of myogenic cells isolated from dystrophic mouse muscle. Nature 270, 725 (1977) were cultured in growth media (Dulbecco's Modified Eagle Medium (4.5 g/l D-Glucose, No L Glutamine, No Sodium Pyruvate (Gibco))+20% Fetal Bovine Solution-One Shot (Gibco)+1% Glut Max 100×(Gibco)). Cells were maintained at 37° C., 5% CO2. Cells at 70% confluence, passage 8 were extracted from T75 flasks with 0.025% Tryspin EDTA (Gibco), neutralised in growth media, spun at 180×g for 5 min to pellet cells. The cells were then resuspended in 10 ml of fresh growth media. 500 μl of cells were plated on a 8-well on cover glass II (Sarstedt) chamber slide at a density of 1×10^3 cells/ml. Cells were left 4 h at 37° C. to re-attach. For drug treatments, the media were supplemented with appropriate doses and cultured for 6 h.

[2] = test system: C2C12 murine myoblast cells; test: C2C12 cell proliferation, CyQuant Proliferation Assay kit; type: cell-based, mouse; conditions: 20 nM, 48 hours, compared with full-length NAMPT
Method: FIG. 7. Human NAMPT variants stimulate muscle progenitor proliferation. C2C12 mouse myoblasts were treated with 20 nM full length NAMPT (NAMPT) or NAMPT variants for (NAMPTxxx-xxx, where xxx are amino acid numbers) 48 hours. Quantification of cell proliferation was performed using CyQuant Proliferation Assay kit. […] Box and whiskers denote median with minimum and maximum values. n=4-5 independent experiments per protein. Statistical significance is indicated as exact p-value. […] Significance between conditions were analysed by one-way ANOVA with Tukey post-hoc test.
Human NAMPTcif (hNAMPTcif) and truncated variants of hNAMPTcif were designed by progressively removing N-terminal regions containing positively charged amino acids. Four truncations were produced and numbered T1 to T4. […] Quantification of proliferation was performed using commercially-available CyQuant Proliferation Assay kit (Thermo Fisher Scientific) according to manufacturer's instructions and read using a Synergy H1 plate reader (BioTek). […]
The heparin-binding sequence of placenta growth factor 2 (PIGF2) was fused to the N-terminus of NAMPTcif and produced using a bacterial expression system. […] Quantification of proliferation was performed using commercially-available CyQuant Proliferation Assay kit (Thermo Fisher Scientific) according to manufacturer's instructions and read using a Synergy H1 plate reader (BioTek). […]

[3] = test system: volumetric muscle loss injury of the rectus femoris muscle
Method: Injury: male C57BL/6J mice aged between 10-12 weeks were anesthetised and shaved on the hind left leg. A unilateral incision measuring approximately 1 cm was made exposing the underlying fascia. The left hind limb was extended and exteriorised via the incision site by retracting the surrounding tissue. A 3×4 mm full thickness segment of the rectus femoris muscle was removed. Directly after, the injury site was filled with fibrin hydrogel with or without 200 ng or 500 ng of hrNAMPT (1) (hydrogel components; 40 μl, 8 mg/ml human fibrinogen (FIB3, Enzyme Research Laboratories), 4 U/ml bovine thrombin (T4648, Sigma), 5 mM CaCI2, 17 μg/ml of aprotinin (ab146286, Abcam)) which polymerized in the defect. Then, the soft tissue was closed with stitches.
Histology: 10 days after treatment, animals were sacrificed and the wounds were harvested for histological analysis. The defect site and associated proximal and distal segment of the quadriceps muscle (including the rectus femoris, vastus medialis and vastus lateralis) were excised and embedded. Histological analysis was performed on serial paraffin sections (4 μm sections collected passing the central portion of the wound). Multiple sections were stained with Masson's Trichrome (to detect collagen deposition) and the extent of fibrosis (represented by a blue stain) was measured by histomorphometric analysis using ImageJ software (version 1.51 h, National Institutes of Health, USA). To maintain uniformity between samples, the length of the vastus medialis taken at multiple depths ranging from 1.0 mm-3.0 mm serves as a reference between tissue sections to determine the depth of sectioning. For fibrotic quantification, average muscle fibrosis area at each depth was scored and normalised with the area of the rectus femoris. Total area of muscle is determined by calculating the average area of rectus femoris at each depth.
Immune cell profiling and PAX7+ cell quantification with flow cytometry: 4, 6 or 8 days after treatment with either 0.5 μg of hrNAMPT (1) delivered by fibrin hydrogel or control fibrin hydrogel only, mice were euthanised via CO2 asphyxiation. The defect site and associated proximal and distal segment of the quadricep muscles were isolated and placed into 890 μl of complete RPMI (with 10% FBS and 2 mM Glutamax, Life Technologies). The tissue was minced with surgical scissors and 100 μl of 10 mg/ml Collagenase II (Sigma-Aldrich) and 10 μl of 10 mg/ml DNAse I (Biolabs), while 100 μl of dispase II (10 mg/ml) was added into the digestion for PAX7 acquisition. The mixture was vortexed and incubated at 37° C. for 45 min. The collagenase was then inactivated with 500 μl ice-cold PBS, 5% FBS, 5 mM EDTA. The mixture was strained subsequently through 70 μm and 40 μm filters. The cell suspension was further diluted with 1 ml complete RPMI and centrifuged for 10 min at 300×g. The supernatant was discarded and the pellet was resuspended in 250 μl complete RPMI and aliquoted into wells of a 96-well U bottom plate for antibody staining. The cell solutions were centrifuged, supernatant discarded, and washed with PBS. The cell viability stain used was 100 μl of Zombie Aqua (Biolegend) Live-Dead dye diluted in PBS (1:400 dilution) and incubated for 30 min at 4° C. The cells were then blocked with FcX (anti-CD16/32 antibodies, Biolegend, 1 μg/ml) flow cytometry buffer (PBS, 5% FBS). The cells were kept for 20 min at 4° C., washed with flow cytometry buffer and centrifuged. […] For internal Foxp3 staining in the T cell panel, cells were fixed with 100 μl fixation/permeabilisation solution (42080, Biolegend) for 35 min. Then cells were washed and resuspended in 100 μl of flow cytometry buffer with 0.5% Saponin and 5 μg/ml anti-Foxp3 (clone 3G3, #35-5773-U100) for 45 min. Cells were then resuspended in flow cytometry buffer (100 μl) and acquired on the Fortessa x20 (Beckman Coulter). […] Cells were stained for 45 min on ice and washed as described above.

[4] = target: T1, TLR4 (Homo sapiens, UniProt O00206); test: TLR4 signalling assay in HEK-Blue TLR4 reporter cells; type: cell-based; conditions: 19 nM; 24 hours; plus 5 ug/ml polymyxin B
T1 construct: host or cells: HEK-Blue TLR4 reporter cell line
Method: TLR4 receptor activation was assayed using the HEK-Blue TLR4 reporter cell line (InvivoGen). In this cell line, TLR4 and downstream NFκB signalling induces expression and secretion of alkaline phosphatase that can be quantified via colorimetric assay. HEK-Blue cells were treated for 24 hours with 19 nM of NAMPTcif or PIGF-NAMPTcif plus 5 ug/ml polymyxin B to ensure no TLR4 activation by any trace amounts of endotoxin. TLR4 activity was reported as the equivalent amount of activation by bacterial lipopolysaccharides (LPS), thus a standard curve was generated by serial dilutions of LPS from 0.01 to 20 ng/ml. Detection of alkaline phosphatase activity was performed using a QUANTI-Blue kit (InvivoGen) according to manufacturer's instructions and plates were read using a Synergy H1 plate reader (BioTek). Data were presented as equivalent LPS concentration in ng/ml. A one-way ANOVA with Dunnett's multiple comparisons test was performed to determine statistical significance.

[5] = test system: Human primary endothelial cells derived from umbilical vein; test: Human primary endothelial cell proliferation, CyQuant; type: cell-based; conditions: 20 nM; 48 hours
Method: FIG. 9. Human NAMPT variants stimulate human endothelial cell proliferation. Human primary endothelial cells derived from umbilical vein were treated with 20 nM full length NAMPT (NAMPT) or NAMPT variants (NAMPTxxx-xxx, where xxx are amino acid numbers) for 48 hours. Quantification of cell proliferation was performed using CyQuant Proliferation Assay kit. […] Treatment with 10% FBS was used as a positive control. Box and whiskers denote median with minimum and maximum values. n=6 independent experiments per protein. Statistical significance is indicated as p-value and determined by one-sample t-test.
Similarly, the inventors next investigated the activity of full length NAMPT, NAMPT402-491 and NAMPT422-491 on human endothelial cell proliferation. Human endothelial cells were derived from umbilical vein and treated with 20 nM full length NAMPT (NAMPT) or NAMPT variants for 48 hours.

[6] = fibrin hydrogel delivery, 10 days post treatment
[7] = single dose 0.5 μg in fibrin hydrogel at the point of injury, 10 days post treatment, vs fibrin only

T1 sequence (O00206 24-839): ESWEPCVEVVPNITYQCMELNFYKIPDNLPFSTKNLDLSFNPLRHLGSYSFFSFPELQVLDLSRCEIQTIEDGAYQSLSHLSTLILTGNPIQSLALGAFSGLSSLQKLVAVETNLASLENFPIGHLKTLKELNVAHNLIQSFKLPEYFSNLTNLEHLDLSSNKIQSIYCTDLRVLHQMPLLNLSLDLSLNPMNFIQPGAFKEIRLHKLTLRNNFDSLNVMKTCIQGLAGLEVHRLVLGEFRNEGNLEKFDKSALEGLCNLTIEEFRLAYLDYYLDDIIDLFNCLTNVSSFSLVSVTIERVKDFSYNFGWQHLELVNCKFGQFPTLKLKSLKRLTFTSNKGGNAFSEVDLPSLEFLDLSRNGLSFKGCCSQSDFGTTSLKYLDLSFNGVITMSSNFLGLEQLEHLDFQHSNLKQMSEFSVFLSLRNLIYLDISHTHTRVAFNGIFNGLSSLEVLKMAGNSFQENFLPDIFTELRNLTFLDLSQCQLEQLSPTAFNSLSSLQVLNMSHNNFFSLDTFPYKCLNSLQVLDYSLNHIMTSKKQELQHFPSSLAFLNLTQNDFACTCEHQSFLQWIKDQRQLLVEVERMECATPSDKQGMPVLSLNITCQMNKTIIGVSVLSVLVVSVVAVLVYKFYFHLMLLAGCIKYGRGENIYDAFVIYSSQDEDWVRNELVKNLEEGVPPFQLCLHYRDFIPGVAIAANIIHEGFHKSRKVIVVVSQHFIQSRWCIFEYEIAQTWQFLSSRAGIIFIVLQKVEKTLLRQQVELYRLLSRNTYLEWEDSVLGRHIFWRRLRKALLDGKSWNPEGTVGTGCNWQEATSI
T1 sequence (Q9Y6Y9 17-160 partner limits assumed): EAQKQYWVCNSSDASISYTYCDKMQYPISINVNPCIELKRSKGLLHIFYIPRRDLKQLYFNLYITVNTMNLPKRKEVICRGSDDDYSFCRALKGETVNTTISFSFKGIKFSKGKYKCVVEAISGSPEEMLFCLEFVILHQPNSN

## O=C(NCC(=O)N1CC[C@H](N[C@H]2CC[C@@](O)(c3ccc(-c4ncccn4)cn3)CC2)C1)c1cccc(C(F)(F)F)c1 [PF-4136309]
[1]; EdU incorporation
  effect on NAMPT-induced increase in myoblast proliferation: does not hinder NAMPT's stimulatory effect on myoblast proliferation

## NAMPT422-471: Truncated hNAMPTcif, residues 422-471 of full length NAMPT, SEQ ID NO: 33 (His-tagged: SEQ ID NO: 34) (NKRSKKGRLSLHRTPAGNFVTLEEGKGDLEEYGQDLLHTVFKNGKVTKS)
[2]
  cell proliferation, percentage increase vs PBS-treated control: lower cellular proliferation of muscle progenitor cells compared to full-length NAMPT and the other NAMPT variants

## N#CN=C(NCCCCCCOc1ccc(Cl)cc1)Nc1ccncc1 [GMX1778]
[1]; EdU incorporation
  effect on NAMPT-induced increase in myoblast proliferation: does not impact its effect on myoblast proliferation; also recorded: did not affect the increased myoblast proliferation
[1]; drug alone, EdU incorporation
  effect on basal level of C2C12 proliferation: no negative effect on the basal level of C2C12 proliferation

## CCCCOCCOc1ccc(-c2ccc3c(c2)/C=C(/C(=O)Nc2ccc([S@@+]([O-])Cc4cncn4CCC)cc2)CCCN3CC(C)C)cc1 [cenicriviroc]
[1]; EdU incorporation
  effect on NAMPT-induced increase in myoblast proliferation: abolishes NAMPT's pro-proliferative response; also recorded: proliferative response was blocked

## CCL2/MCP-1: CCR2 ligand
[1]; exogenously added factor vs control, listed as mrCCL2
  myoblast proliferation (EdU incorporation), factor alone: failed to increase proliferative rates beyond that of the control

## Nicotinamide phosphoribosyltransferase [NAMPT]
[3]; 0.5 μg in fibrin, 6 days post treatment, vs fibrin only
  number of centrally nucleated de novo muscle fibres: significant increase
[3]; delivered into the muscle defect via fibrin hydrogel, vs fibrin only control hydrogel
  restoration of muscle architecture: fully restore muscle architecture
[3]; [6]
  fibrotic tissue (Masson's trichrome): significant reduction in fibrotic tissue
  regenerated muscle area (Masson's trichrome): significantly increased the regenerated muscle area
[3]; [7]
  decrease in average fibrotic area: 34.76±9.32%
  increase in average muscle area: 3.276±0.4926 mm^2
[4]
  TLR4 activation (equivalent LPS concentration): activates TLR4
[5]
  endothelial cell proliferation, percentage increase vs PBS-treated control: still stimulated endothelial cell proliferation above negative control

## maraviroc
[1]; EdU incorporation
  effect on NAMPT-induced increase in myoblast proliferation: abolishes NAMPT's pro-proliferative response; also recorded: proliferative response was blocked

## NAMPT436-491: Truncated hNAMPTcif, residues 436-491 of full length NAMPT, SEQ ID NO: 10 (His-tagged: SEQ ID NO: 11) (PAGNFVTLEEGKGDLEEYGQDLLHTVFKNGKVTKSYSFDEIRKNAQLNIELEAAHH)
[2]
  cell proliferation, percentage increase vs PBS-treated control: lower cellular proliferation of muscle progenitor cells compared to full-length NAMPT and the other NAMPT variants
